We go through 15 compounds from US6218406A, “Farnesyl transferase inhibitors, their preparation, the pharmaceutical compositions which contain them and their use in the preparation of medicaments” (Aventis Pharma S.A., priority 1996, dated 2001).

A word on the pIC50: it is the IC50 on a negative log10 scale, so that one unit is a factor of ten.

pIC50: −log10 of the molar value. Where only a bound is given, the exact number is not on record here.

In one test the target is farnesyl transferase (Homo sapiens, UniProt P49354+P49356). Put plainly: Farnesyl transferase inhibition, [3H]-farnesylation of biotinylated K-ras C-terminal peptide (SPA assay). As to conditions: In vitro inhibitory activity (K-Ras) IC50, K-Ras substrate; 60 min at 37° C.; mean of two IC50 values. Type of test: biochemical.
The compound `COc1ccccc1CC(=O)N1C[C@H]2[C@@]3(c4ccc(C)cc4)CC[C@H](c4ccccc43)[C@@]2(C(=O)O)C1` (single isomer, unassigned) [Example 30, dextrorotatory enantiomer of (3aRS,4SR,9SR,9aRS)-4,9-ethano-2-[2-(2-methoxyphenyl)acetyl]-9-(4-methylphenyl)-2,3,3a,4,9,9a-hexahydro-1H-benzo[f]isoindole-3a-carboxylic Acid] showed a pIC50 of 7.13.

Staying with this test, now noted: K-Ras substrate; 60 min at 37° C.; mean of two IC50 values; read-out: In vitro inhibitory activity (K-Ras) IC50.
As for `C=C(C(=O)N1C[C@H]2[C@@]3(c4ccc(OC)cc4)CC[C@H](c4ccccc43)[C@@]2(C(=O)NCc2ccsc2)C1)c1ccccc1OC` (relative stereo) [Example 80, (3aRS,4SR,9SR,9aRS)-4,9-ethano-9-(4-methoxyphenyl)-2-[2-(2-methoxyphenyl)propenoyl]-2,3,3a,4,9,9a-hexahydro-1H-benzo[f]isoindole-3a-N-(3-thienylmethyl)carboxamide], the pIC50 is 7.17.

With `C=C(C(=O)N1C[C@H]2[C@@]3(c4cccc(F)c4)CC[C@H](c4ccccc43)[C@@]2(C(=O)NCc2cccnc2)C1)c1ccccc1OC` (relative stereo) [Example 87, (3aRS,4SR,9SR,9aRS)-4,9-ethano-9-(3-fluorophenyl)-2-[2-(2-methoxyphenyl)propenoyl]-2,3,3a,4,9,9a-hexahydro-1H-benzo[f]isoindole-3a-N-(3-pyridylmethyl)carboxamide], the pIC50 is 7.19. Consider `C=C(C(=O)N1C[C@H]2[C@@]3(c4cccc(Cl)c4)CC[C@H](c4ccccc43)[C@@]2(C(=O)NCc2cccnc2)C1)c1ccccc1OC` (relative stereo) [Example 90, (3aRS,4SR,9SR,9aRS)-9-(3-chlorophenyl)-4,9-ethano-2-[2-(2-methoxyphenyl)propenoyl]-2,3,3a,4,9,9a-hexahydro-1H-benzo[f]isoindole-3a-N-(3-pyridylmethyl)carboxamide], for which the pIC50 was 7.17.

Turning to `C=C(C(=O)N1C[C@H]2[C@@]3(c4cccc(N(C)C)c4)CC[C@H](c4ccccc43)[C@@]2(C(=O)OC)C1)c1ccccc1OC` (relative stereo) [Example 91, methyl (3aRS,4SR,9SR,9aRS)-9-(3-N,N-dimethylaminophenyl)-4,9-ethano-2-[2-(2-methoxyphenyl)propenoyl]-2,3,3a,4,9,9a-hexahydro-1H-benzo[f]isoindole-3a-carboxylate], the pIC50 is 6.74.

Turning to `C=C(C(=O)N1C[C@H]2[C@@]3(c4cccc(N(C)C)c4)CC[C@H](c4ccccc43)[C@@]2(C(=O)O)C1)c1ccccc1OC` (relative stereo) [Example 92, (3aRS,4SR,9SR,9aRS)-9-(3-N,N-dimethylaminophenyl)-4,9-ethano-2-[2-(2-methoxyphenyl)propenoyl]-2,3,3a,4,9,9a-hexahydro-1H-benzo[f]isoindole-3a-carboxylic Acid], the pIC50 was 7.55. For the compound `C=C(C(=O)N1C[C@H]2[C@@]3(c4ccc(N(C)C)cc4)CC[C@H](c4ccccc43)[C@@]2(C(=O)OC)C1)c1ccccc1OC` (relative stereo) [Example 94, methyl (3aRS,4SR,9SR,9aRS)-9-(4-N,N-dimethylaminophenyl)-4,9-ethano-2-[2-(2-methoxyphenyl)propenoyl]-2,3,3a,4,9,9a-hexahydro-1H-benzo[f]-isoindole-3a-carboxylate], the pIC50 was 6.25. Take `C=C(C(=O)N1C[C@H]2[C@@]3(c4ccc(C)cc4)CC[C@H](c4ccccc43)[C@@]2(C(=O)O)C1)c1ccccc1OC` (single isomer, unassigned) [Example 4, laevorotatory enantiomer of (3aRS,4SR,9RS,9aRS)-4,9-ethano-2-[2-(2-methoxyphenyl)propenoyl]-9-(4-methylphenyl)-2,3,3a,4,9,9a-hexahydro-1H-benzo[f]isoindole-3a-carboxylic acid]: the pIC50 is 5.74.

As to `C=C(C(=O)N1C[C@H]2[C@@]3(c4ccc(C)cc4)CC[C@H](c4ccccc43)[C@@]2(C(=O)NCc2cccnc2)C1)c1ccccc1OC` (single isomer, unassigned) [Example 18, Dextrorotatory Enantiomer of (3aRS,4SR,9SR,9aRS)-4,9-ethano-2-[2-(2-methoxyphenyl)propenoyl]-9-(4-methylphenyl)-2,3,3a,4,9,9a-hexahydro-1H-benzo[f]isoindole-3a-N-(3-pyridylmethyl)carboxamide], the pIC50 was 7.30.

With `C=C(C(=O)N1C[C@H]2[C@@]3(c4ccc(C)cc4)CC[C@H](c4ccccc43)[C@@]2(C(=O)NCc2cccnc2)C1)c1ccccc1OC` (single isomer, unassigned) [Example 19, Levorotatory Enantiomer of (3aRS,4SR,9SR,9aRS)-4,9-ethano-2-[2-(2-methoxyphenyl)propenoyl]-9-(4-methylphenyl)-2,3,3a,4,9,9a-hexahydro-1H-benzo[f]isoindole-3a-N-(3-pyridylmethyl)carboxamide], the pIC50 is 6.74. As to `C=C(C(=O)N1C[C@H]2[C@@]3(c4ccc5c(c4)OCCO5)CC[C@H](c4ccccc43)[C@@]2(C(=O)NCc2cccnc2)C1)c1ccccc1OC` (single isomer, unassigned) [Example 34, dextrorotatory enantiomer of (3aRS,4SR,9SR,9aRS)-9-(2,3-dihydro-1,4-benzodioxin-6-yl)-4,9-ethano-2-[2-(2-methoxyphenyl)propenoyl]-2,3,3a,4,9,9a-hexahydro-1H-benzo[f]isoindole-3a-N-(3-pyridylmethyl)carboxamide], the pIC50 is greater than 7.70. On to `C=C(C(=O)N1C[C@@H]2[C@]3(c4ccc5c(c4)OCCO5)CC[C@@H](c4ccccc43)[C@]2(C(=O)NCc2cccnc2)C1)c1ccccc1OC` (single isomer, unassigned) [Example 35, levorotatory enantiomer of (3aRS,4SR,9SR,9aRS)-9-(2,3-dihydro-1,4-benzodioxin-6-yl)-4,9-ethano-2-[2-(2-methoxyphenyl)propenoyl]-2,3,3a,4,9,9a-hexahydro-1H-benzo[f]isoindole-3a-N-(3-pyridylmethyl)carboxamide], for which the pIC50 was 7.08. Consider `C=C(C(=O)N1C[C@@H]2[C@]3(c4ccc(C(F)(F)F)cc4)CC[C@@H](c4ccccc43)[C@]2(C(=O)O)C1)c1ccccc1OC` (single isomer, unassigned) [Example 41, dextrorotatory enantiomer of (3aRS,4SR,9SR,9aRS)-4,9-ethano-2-[2-(2-methoxyphenyl)propenoyl]-9-[4-(trifluoromethyl)phenyl]-2,3,3a,4,9,9a-hexahydro-1H-benzo[f]isoindole-3a-carboxylic Acid], for which the pIC50 is 8.05. Regarding `C=C(C(=O)N1C[C@H]2[C@@]3(c4ccc(OC)cc4)CC[C@H](c4ccccc43)[C@@]2(C(=O)O)C1)c1ccccc1OC` (single isomer, unassigned) [Example 75, Dextrorotatory Enantiomer of (3aRS,4SR,9SR,9aRS)-4,9-ethano-9-(4-methoxyphenyl)-2-[2-(2-methoxyphenyl)propenoyl]-2,3,3a,4,9,9a-hexahydro-1H-benzo[f]isoindole-3a-carboxylic Acid], the pIC50 was 8.10. Regarding `C=C(C(=O)N1C[C@H]2[C@@]3(c4ccc(C)cc4)CC[C@H](c4c(OC)cccc43)[C@@]2(C(=O)O)C1)c1ccccc1OC` (single isomer, unassigned) [Example 100, Dextrorotatory Enantiomer of (3aRS,4SR,9SR,9aRS)-4,9-ethano-5-methoxy-2-[2-(2-methoxyphenyl)propenoyl]-9-(4-methylphenyl)-2,3,3a,4,9,9a-hexahydro-1H-benzo[f]isoindole-3a-carboxylic Acid], the pIC50 is greater than 7.72.
